Results from publication PMC4726324, “Rational steering of insulin binding specificity by intra-chain chemical crosslinking” (Scientific Reports, 2016).
Where two headings read alike, the source gives them in different places.

Details: triazole bond
[1] = the molecule shown is the open-chain precursor, 17-membered ring, CuSO4/ascorbic acid, H2O/tBuOH 2:1, 0.08 mM, 25.0 °C

Substance	ring closure, yield after HPLC [1] [%]	further results
H-Gly-Phe-Phe-Prg-Thr-Pro-Nva(δN3)-Thr-OH?	45	–
H-Gly-Phe-Phe-Tyr-Nva(δN3)-Pro-Prg-Thr-OH?	–	ring closure, yield after HPLC (the molecule shown is the open-chain precursor, 14-membered ring, CuSO4/ascorbic acid, H2O/tBuOH 2:1, 25.0 °C): 37%
H-Gly-Gly-Phe-Nva(δN3)-Thr-Pro-Prg-Thr-OH?	36	–
H-Gly-Gly-Phe-Tyr-Nva(δN3)-Pro-Prg-Thr-OH?	–	ring closure, yield after HPLC (the molecule shown is the open-chain precursor, 14-membered ring, CuSO4/ascorbic acid, H2O/tBuOH 2:1, 0.08 mM, 25.0 °C): 52%
cyclo[GB23-G-F-(NMe)A-Nva(δN3)-P-Prg-TB30]	–	ring closure, yield after HPLC (14-membered ring, Cu(I)/TBTA): 49%
H-Gly-Phe-Phe-Nva(δN3)-Thr-Pro-Prg-Thr-OH	40	–
